Key:
DNA = assay: Identification of B; format: in vivo, PIRC rats; details: colon and liver tissues
Tissue disposition of B = format: in vivo, PIRC rats; details: for proportion of reactive metabolite among B(a)P metabolite concentrations: colon sample, 50 µg B(a)P/kg bw (Fig. 5D)
SULT1A1 [1] = assay: Western blot of SULT1A1 protein in liver; format: in vivo, PIRC rats
GST [2] = assay: Western blot of GST protein in liver; format: in vivo, PIRC rats
SULT1A1 [3] = assay: Western blot of SULT1A1 protein in colon; format: in vivo, PIRC rats
GST [4] = assay: Western blot of GST protein in colon; format: in vivo, PIRC rats; details: 25 µg B(a)P/kg bw + RD, among all the groups
malondialdehyde (MDA) [5] = assay: Lipid peroxidation; format: in vivo, PIRC rats; details: B(a)P + WD
malondialdehyde (MDA) [6] = assay: Lipid peroxidation; format: in vivo, PIRC rats; details: among the treatment groups, except in the case of 100 µg/kg
Caco-2 cells = details: Western diet; ref Faria et al. (2020); cited from earlier work

With `Oc1ccc2ccc3c4ccccc4cc4ccc1c2c43` [3-OH-B(a)P] the “contribution of B(a)P metabolite to DNA adduct formation” value (“contribution of B(a)P metabolite” below) (DNA) was “not found to contribute to adduct formation”.
For `Oc1ccc2cc3ccc4cccc5ccc(c2c1)c3c45` [9-OH–B(a)P], the “contribution of B(a)P metabolite” value (DNA) was “not found to contribute to adduct formation”.
With `c1ccc2c(c1)cc1ccc3cccc4ccc2c1c34` [B(a)P, Benzo(a)pyrene] the “B(a)P metabolite concentrations versus dose” value (Tissue disposition of B; plasma, liver, colon, 25, 50, 100 µg B(a)P/kg bw) was “dose-dependent”, the “SULT1A1 protein expression in liver, WD compared to RD” value (SULT1A1 [1]; 25 µg B(a)P/kg bw + WD vs RD) was “increased expression” and the “SULT1A1 protein expression in liver, RD or WD” value (SULT1A1 [1]; 50 and 100 µg B(a)P/kg bw + RD or WD) was “no difference”. For the same compound, the “GST protein expression in liver, RD or WD” value (GST [2]; 100 µg B(a)P/kg bw, RD or WD) was “Very little difference”, the “GST protein expression in liver, WD compared to counterparts” value (GST [2]; 25 and 50 µg B(a)P/kg bw + WD) was “significant increase” and the “SULT1A1 protein expression in colon” value (SULT1A1 [3]; 25 µg B(a)P/kg bw + RD and WD) was “negligible”. The “SULT1A1 protein expression in colon” value (SULT1A1 [3]; 50 µg B(a)P/kg bw, both diets) was “increased”, the “SULT1A1 protein expression in colon, WD compared to RD” value (SULT1A1 [3]; 100 µg B(a)P/kg bw + WD vs RD counterpart) was “significantly increased” and the “GST protein expression in colon” value (GST [4]) was “largest increase”. For the same compound, the “MDA production in colon” value (malondialdehyde (MDA) [5]) was “increased”, the “oxidative stress (MDA) in serum” value (malondialdehyde (MDA) [6]) was “no difference” and the “bioaccessibility of B(a)P with WD” value (Caco-2 cells) was “higher bioaccessibility”.
For `O=C1C=Cc2ccc3c4c(ccc1c24)C(=O)c1ccccc1-3` [B(a)P-3,6-dione], the “contribution of B(a)P metabolite” value (DNA) was “not found to contribute to adduct formation” and the “proportion of reactive metabolite among B(a)P metabolite concentrations” value (Tissue disposition of B) was “high”.
In the case of `O=c1c2ccc3cccc4c(=O)cc(c5ccccc15)-c2c34` [B(a)P-6,12-dione], the “contribution of B(a)P metabolite” value (DNA) was “not found to contribute to adduct formation” and the “proportion of reactive metabolite among B(a)P metabolite concentrations” value (Tissue disposition of B) was “high”.
With `O[C@@H]1[C@@H]2O[C@@H]2c2c(cc3ccc4cccc5ccc2c3c45)[C@H]1O` [BPDE, 7β,8α-dihydroxy-9α,10α-epoxy-7,8,9,10-tetrahydrobenzo[a]pyrene] the “contribution of B(a)P metabolite” value (DNA) was “major adducts”.

From paper PMC10943645 (Current Research in Toxicology, 2024)
